In brackets after ≈: the same amount, converted by molar mass.
Tests used:
Plasmodium falciparum [1] = assay: Antiplasmodial activity against chloroquine-sensitive Plasmodium falciparum 3D7; type: functional, organism-based
Plasmodium falciparum [2] = assay: Antiplasmodial activity against chloroquine-resistant Plasmodium falciparum K1; type: functional, organism-based
Plasmodium falciparum [3] = assay: Antiplasmodial activity against chloroquine-sensitive Plasmodium falciparum D10; type: functional, organism-based
Plasmodium falciparum [4] = assay: Antiplasmodial activity against chloroquine-resistant Plasmodium falciparum W2; type: functional, organism-based
[5] = Cytotoxicity against human lymphocytes; type: cell-based; conditions: Lymphocyte
Aspergillus flavus = assay: Antifungal activity against Aspergillus flavus ATCC 204304; type: functional
Candida parapsilosis = assay: Antifungal activity against Candida parapsilosis ATCC 22019; type: functional; conditions: Lodderomyces parapsilosis
Cryptococcus neoformans = assay: Antifungal activity against Cryptococcus neoformans; type: functional
Aspergillus fumigatus [6] = assay: Antifungal activity against Aspergillus fumigatus; type: functional
KB = assay: Cytotoxicity against human KB cell line; type: cell-based
Candida albicans = assay: Antifungal activity against Candida albicans; type: functional
Daudi = assay: Cytotoxicity against human Daudi cell line; type: cell-based
Pichia kudriavzevii = assay: Antifungal activity against Candida krusei ATCC 6258; type: functional
Aspergillus fumigatus [7] = assay: Antifungal activity against itraconazole resistant Aspergillus fumigatus; type: functional

N#CC(c1ccccc1)(c1ccc(Cl)cc1)c1ccc(CN2CCCC2)cc1 (racemic)
IC50 (Plasmodium falciparum [1]): 5.07 µM
IC50 (Plasmodium falciparum [2]): 2.64 µM

OC(c1ccccc1)(c1ccc(Cl)cc1)c1ccc(CN2CCCC2)cc1 (racemic)
IC50 (Plasmodium falciparum [3]): 8.3 µM
IC50 (Plasmodium falciparum [1]): > 10 µM
IC50 (Plasmodium falciparum [2]): 2.17 µM

Clc1ccc(C(c2ccccc2)(c2ccc(CN3CCCC3)cc2)N2CCCC2)cc1 (racemic)
IC50 (Plasmodium falciparum [4]): 2.57 µM
IC50 (Plasmodium falciparum [3]): 4.81 µM
IC50 (Plasmodium falciparum [1]): 0.94 µM
IC50 (Plasmodium falciparum [2]): 1.99 µM

Clc1ccccc1C(CNCN1CCCC1)n1ccnc1 (racemic)
IC50 (Plasmodium falciparum [4]): 3.05 µM
IC50 (Plasmodium falciparum [3]): 9.43 µM
IC50 (Plasmodium falciparum [1]): 2.61 µM
IC50 (Plasmodium falciparum [2]): 0.92 µM

Clc1ccc(C(c2ccccc2)(c2ccc(CN3CCCC3)cc2)n2ccnc2)cc1 (racemic)
IC50 [5]: 70 µM
MIC (Aspergillus flavus): > 32 µg/mL
MIC (Candida parapsilosis): 32 µg/mL (≈ 74.8 µM)
MIC (Cryptococcus neoformans): > 32 µg/mL
MIC (Aspergillus fumigatus [6]): > 32 µg/mL
IC50 (KB): 70 µM
MIC (Candida albicans): 32 µg/mL (≈ 74.8 µM)
IC50 (Daudi): 58 µM
MIC (Pichia kudriavzevii): 16 µg/mL (≈ 37.4 µM)

Clc1ccc(C(Cn2ccnc2)(c2ccccc2)c2ccc(CN3CCCC3)cc2)cc1 (racemic)
IC50 (Plasmodium falciparum [1]): 0.75 µM
IC50 (Plasmodium falciparum [2]): 0.52 µM

Clc1ccccc1C(c1ccc(CN2CCCC2)cc1)n1ccnc1 (racemic)
IC50 (Plasmodium falciparum [4]): 1.7 µM
MIC (Aspergillus flavus): > 32 µg/mL
MIC (Candida parapsilosis): > 32 µg/mL
MIC (Cryptococcus neoformans): > 32 µg/mL
IC50 (Plasmodium falciparum [3]): 2.18 µM
MIC (Aspergillus fumigatus [6]): > 32 µg/mL
MIC (Candida albicans): > 32 µg/mL
IC50 (Plasmodium falciparum [1]): 0.011 µM
IC50 (Plasmodium falciparum [2]): 0.11 µM
MIC (Pichia kudriavzevii): > 32 µg/mL

CCN(CC)Cc1ccc(C(c2ccccc2Cl)n2cncn2)cc1 (racemic)
IC50 (Plasmodium falciparum [4]): > 10 µM
IC50 (Plasmodium falciparum [3]): > 10 µM
IC50 (Plasmodium falciparum [1]): > 10 µM
IC50 (Plasmodium falciparum [2]): 0.79 µM

Clc1ccc(C(c2ccc(CN3CCCC3)cc2)n2ccnc2)cc1 (racemic)
IC50 (Plasmodium falciparum [4]): 1.13 µM
MIC (Aspergillus flavus): > 32 µg/mL
MIC (Candida parapsilosis): > 32 µg/mL
MIC (Cryptococcus neoformans): > 32 µg/mL
IC50 (Plasmodium falciparum [3]): 1.66 µM
MIC (Aspergillus fumigatus [6]): > 32 µg/mL
MIC (Candida albicans): > 32 µg/mL
IC50 (Plasmodium falciparum [1]): 0.31 µM
IC50 (Plasmodium falciparum [2]): 0.17 µM
MIC (Pichia kudriavzevii): > 32 µg/mL

COc1ccc(C(c2ccccc2)(c2ccc(CN3CCCC3)cc2)n2ccnc2)cc1 (racemic)
IC50 (Plasmodium falciparum [4]): 1.84 µM
IC50 (Plasmodium falciparum [3]): 2.04 µM
IC50 (Plasmodium falciparum [1]): 8.13 µM
IC50 (Plasmodium falciparum [2]): 5.93 µM

Clc1cccc(C(c2ccc(CN3CCCC3)cc2)n2ccnc2)c1 (racemic)
IC50 (Plasmodium falciparum [4]): 1.03 µM
MIC (Aspergillus flavus): > 32 µg/mL
MIC (Candida parapsilosis): > 32 µg/mL
MIC (Cryptococcus neoformans): > 32 µg/mL
IC50 (Plasmodium falciparum [3]): 1.42 µM
MIC (Aspergillus fumigatus [6]): > 32 µg/mL
MIC (Candida albicans): > 32 µg/mL
IC50 (Plasmodium falciparum [1]): 0.11 µM
IC50 (Plasmodium falciparum [2]): 0.2 µM
MIC (Pichia kudriavzevii): > 32 µg/mL

CCN(CC)CCCNCC(c1ccccc1Cl)n1ccnc1 (racemic)
IC50 (Plasmodium falciparum [4]): 4.46 µM
IC50 (Plasmodium falciparum [3]): 6.41 µM
IC50 (Plasmodium falciparum [1]): 1.9 µM
IC50 (Plasmodium falciparum [2]): 3.08 µM

Clc1ccc(C(c2ccccc2)(c2ccc(CN3CCCC3)cc2)n2cncn2)cc1 (racemic)
IC50 (Plasmodium falciparum [4]): 3.83 µM
IC50 (Plasmodium falciparum [3]): 6.92 µM
IC50 (Plasmodium falciparum [1]): 8.91 µM
IC50 (Plasmodium falciparum [2]): 2.15 µM

Clc1cccc(C(c2ccccc2)(c2ccc(CN3CCCC3)cc2)n2ccnc2)c1 (racemic)
IC50 (Plasmodium falciparum [4]): 0.1 µM
IC50 (Plasmodium falciparum [3]): 0.23 µM
IC50 (Plasmodium falciparum [1]): 0.047 µM
IC50 (Plasmodium falciparum [2]): 0.023 µM

Clc1ccccc1C(c1ccccc1)(c1ccccc1)n1ccnc1 [CLOTRIMAZOLE]
MIC (Aspergillus fumigatus [7]): 4 µg/mL (≈ 11.6 µM)
MIC (Aspergillus flavus): 4 µg/mL (≈ 11.6 µM)
MIC (Candida parapsilosis): 2 µg/mL (≈ 5.8 µM)
MIC (Cryptococcus neoformans): 2 µg/mL (≈ 5.8 µM)
MIC (Aspergillus fumigatus [6]): 4 µg/mL (≈ 11.6 µM)
MIC (Candida albicans): 0.03 µg/mL (≈ 0.087 µM)
MIC (Pichia kudriavzevii): 2 µg/mL (≈ 5.8 µM)

Reference: ChEMBL document CHEMBL1141393 (J Med Chem, 2007)
